For assay [1], the system named is H3K27m3 and H3K27ac. Kind of assay: Histone modifications H3K27m3/H3K27ac (western blotting, ChIP assay). Format: cell-based, mouse. As to the method: Following stimulation with IL4 or LPS+IFNγ with or without emodin for varying periods, macrophages were lysed with cell signaling lysis buffer (Millipore) for whole cell lysates. Cytoplasmic and nuclear extracts were prepared using the Epiquik Nuclear Extraction kit (Epigentek, Farmingdale, N.Y.). Total protein was separated on 4-20% Tris-glycine pre-cast gels (Pierce) and transferred onto Nitrocellulose membranes (Bio-Rad Life Science, Hercules, Calif.). The membranes were then probed with HRP conjugated secondary antibodies, and signals were detected using Pierce ECL Western Blotting Substrate (Pierce).
Macrophages were stimulated with IL4 or LPS+IFNγ for 24 h with or without emodin. They were then fixed in 1% formaldehyde. Excess formaldehyde was quenched with glycine and the cells were collected in PBS by scraping. The cells were lysed (0.5% IGEPAL, 4 mM HEPES) and the nuclei were resuspended in nuclear lysis buffer (1% SDS, 10 mM EDTA, and 50 mM Tris, pH 8.1). The DNA was sheared by sonication using a Diagnode Bioruptor Pico for 15 cycles of 30 s on/30 s off. Then 10 μg chromatin was diluted 1:10 (0.01% SDS, 1.1% Triton X-100, 1.2 mM EDTA, 16.7 mM Tris-HCl, pH 8.1, 167 mM NaCl) and 2% of the input was removed from each sample and saved for analysis. Anti-H3K27m3 or anti-H3K27ac (Abcam) was added to each sample along with 20 μl of protein A+G magnetic beads (Millipore) and the samples were incubated overnight at 4° C. The beads were washed with low salt, high salt, LiCl, and TE wash buffers sequentially and the DNA was eluted off the beads with Proteinase K at 62° C. for 2 h (elution buffer: 200 mM NaCl, 1% SDS and 50 mM Tris). The DNA was then analyzed by real time PCR.

Assay [2] relates to Peritoneal macrophages from C57Bl/6 mice. Put plainly: Macrophages stimulated with EO771 tumor conditioned medium (qPCR, histone kit, ChIP). Format: cell-based, mouse. As for the experimental part:
4T1 cells were obtained from the American Type Culture Collection (ATCC), and EO771 cells were developed from an ER+ spontaneous mammary adenocarcinoma. The cells were maintained in culture according to standard practice. For tumor conditioned medium (TCM) collection, cells were grown until they were 80-90% confluent. Following, the medium was replaced with serum free (SF) DMEM and the cells were cultured for 48 h. The medium was then collected and passed through a 0.45 μm filter (Millipore Corp., Bedford, Mass.). The medium was concentrated 10 times using centrifuge filters with a 3,000 MW cutoff (Millipore). Before use the concentrated conditioned medium was diluted 1:2 with fresh SF DMEM.
Mice were injected with 3 mL of 4% thioglycollate solution. After 3 d, macrophages were collected by peritoneal lavage with PBS. The cells were resuspended in DMEM with 10% FBS and cultured for 2 h. The non-adherent cells were then washed away and the remaining cells were cultured overnight in SF DMEM. The cells were then treated with TCM with or without emodin.
For qPCR, cells were lysed with Qiazol, and RNA was extracted using Zymo research Direct-zol RNA isolation kit. cDNA was then made from 1 μg of RNA using iScript cDNA Synthesis Kit (Bio-Rad Life Science, Hercules, Calif.). Run conditions were 95° C. for 10 s, 58° C. for 15 s, 70° C. for 15 s. Samples were run in duplicate on a Bio-rad CFX Real Time thermocycler.
Macrophages were fixed in 1% formaldehyde. Excess formaldehyde was quenched with glycine, and the cells were collected in PBS by scraping. The cells were lysed (0.5% IGEPAL, 4 mM HEPES), and the nuclei were resuspended in nuclear lysis buffer (1% SDS, 10 mM EDTA, and 50 mM Tris, pH 8.1). The DNA was sheared by sonication using a Diagnode Bioruptor Pico (Diagenode, Denville, N.J.) for 25 cycles of 30 s on/30 s off. Then 8 μg chromatin was diluted 1:10 (0.01% SDS, 1.1% Triton X-100, 1.2 mM EDTA, 16.7 mM Tris-HCl, pH 8.1, 167 mM NaCl), and 2% of the input was removed from each sample and saved for analysis. Anti-H3K27m3 (Abcam) was added to each sample along with 20 μL of protein A+G magnetic beads (Millipore), and the samples were incubated overnight at 4° C. The beads were washed with low salt, high salt, LiCl, and TE wash buffers sequentially, and the DNA was eluted off the beads with Proteinase K at 62° C. for 2 h (elution buffer: 200 mM NaCl, 1% SDS and 50 mM Tris). The DNA was then analyzed by qPCR.
In order to detect genome wide levels of histone H3 modifications, histones were isolated from macrophages treated with TCM with or without emodin for 24 h using EpiQuik total histone extraction kits (Epigentek, Farmingdale, N.Y.) according to the manufacturer's instructions. Histones (100 ng) were then analyzed using an EpiQuik Histone H3 modification kits (EpiGentek) according to the manufacturer's instructions.
(Quantitative PCR measures a nucleic acid by following its amplification.)

The values that follow come from US9795570B2, “Modulation of macrophage phenotype by emodin” (University of South Carolina, priority 2016, dated 2017).

Consider `Cc1cc(O)c2c(c1)C(=O)c1cc(O)cc(O)c1C2=O` [emodin], for which, in assay [1] (ChIP assay), the “IL4-induced decrease of H3K27m3 in the promoter of IRF4, Arg1 and YM1 genes” value is given as “reversed”; the “LPS/IFNγ-induced decrease of H3K27m3 in the promoter of iNOS, TNFα and IL6 genes” value was “attenuated”; the “induced increase of H3K27ac in promoters (LPS/IFNγ: iNOS, TNFα, IL6; IL4: IRF4, YM1)” value is “suppressed”. Further, the “global expression of H3K27m3 or H3K27ac” value in assay [1] (western blotting, LPS/IFNγ or IL4, emodin 50 μM 24 h) is reported as “no effect”. In assay [2] (ChIP assay), the “TCM-decreased H3K27m3 on the promoters of IRF4, Arg1, and C/EBPβ” value is listed as “reversed the reduction”. Moreover, in assay [2] (EO771 TCM, 24 h, qPCR), the “TCM-increased expression of ICAM1” value is on record as “dose dependently blocked”; the “TCM-induced expression of Arg1, C/EBPβ and IRF4” value is “dose-dependently inhibited”; the “expression of CSFr1” value is “decreased the expression”; the “expression of MMP2 and MMP9” value is recorded as “inhibited expression”. Besides, the “TCM-increased expression of JMJD3” value in assay [2] (EO771 TCM, emodin 25 μM or 50 μM, 24 h) is given as “significantly attenuated”. In addition, the “global levels of H3K27 methylation” value in assay [2] (EpiQuik histone modification kit) is listed as “no effects”.
